Measurements: patent publication US20230190611A1, “PERSONAL CARE COMPOSITIONS COMPRISING A METAL PIROCTONE COMPLEX” (Conopco, Inc., d/b/a UNILEVER, priority 2020, published 2023)

How the values were obtained:
[1] = Solubility of metal piroctone complexes in 5 wt% aqueous SLES 1EO solution; type: physicochemical; conditions: 1% sample in 5 wt% aqueous solution of SLES 1EO at 20° C.
Description: The solubility of metal piroctone complexes at 20° C. in a 5 wt% aqueous solution of SLES 1EO (sodium lauryl ether sulfate) Is listed in Table 1: […]

[2] = UV stability of ethanolic solutions; type: physicochemical; conditions: 5 hours of UV irradiation (UVA 180 uW/cm2, UVB210 uW/cm2)
Description: The UV stability of an ethanolic solutions (0.5 mM) of copper piroctone and manganese piroctone were measured and compared with a solution of Octopirox 1 mM solution.

% Solubility [1] [%] | degraded after UV irradiation ([2]; ethanolic solution 0.5 mM) [%] | degraded after UV irradiation ([2]; 1 mM solution) [%] | Structure (SMILES)
1.3 | 1.8 |  | Cc1cc(CC(C)CC(C)(C)C)n([O-])c(=O)c1.Cc1cc(CC(C)CC(C)(C)C)n([O-])c(=O)c1.[Cu+2] (stereo not shown) [1% Cu—PIR, Copper bis-piroctone]
1.0 | 3.2 |  | Cc1cc(CC(C)CC(C)(C)C)n([O-])c(=O)c1.Cc1cc(CC(C)CC(C)(C)C)n([O-])c(=O)c1.[Mn+2] (stereo not shown) [1% Mn—PIR, Manganese bis-piroctone]
100.2 |  | 46 | Cc1cc(CC(C)CC(C)(C)C)n(O)c(=O)c1.NCCO (stereo not shown) [1% OCT, piroctone olamine, reference compound]
111.8 |  |  | Cc1cc(CC(C)CC(C)(C)C)n([O-])c(=O)c1.Cc1cc(CC(C)CC(C)(C)C)n([O-])c(=O)c1.[Zn+2] (stereo not shown) [1% Zn—PIR, Zinc bis-piroctone, reference compound]
